From EP3892275A1, “AEROSOLIZATION OF HCQ OR ITS METABOLITES FOR THE TREATMENT OF LUNG INFECTIONS” (INSERM (Institut National de la Santé et de la Recherche …, priority 2020, dated 2021)

Assays:
[1] = Behaviour in water (solubility, aggregation)
lung = settings: aerosol delivery in animals; cited from earlier work
COVID = settings: references 1,2; cited from earlier work

Structure (SMILES) | aggregation when dissolved in water [1] | solubility in water [1] | anti-inflammatory effect on the lung (lung) | antiviral activity in vitro at a cellular level (COVID)
CCN(CCO)CCCC(C)Nc1ccnc2cc(Cl)ccc12.O=S(=O)(O)O (stereo not drawn) [HCQ, 2-[[4-[(7-Chloro-4-quinolyl)amino]pentyl]ethylamino] ethanol sulfate (1:1)] | do not aggregate | water-soluble | rapid and potent anti-inflammatory effect on the lung | highly potent antiviral drug
CC(CCCNCCO)Nc1ccnc2cc(Cl)ccc12 (stereo not drawn) [DHCQ, N-desethylhydroxychloroquine] | do not aggregate | water-soluble | – | –
